ChEMBL document CHEMBL5113502, “Accommodation of ring C expanded deoxyvasicinone in the HDAC inhibitory pharmacophore culminates into a tractable anti-lung cancer agent and pH-responsive nanocarrier” (Eur J Med Chem, 2022)
The source made the active and inactive calls. No cut-off for these calls is given here.

Columns and labels:
A549 = assay: Induction of cell cycle arrest in human A549 cells assessed as accumulation at G0/G1 phase at 0.5 times IC50 after 48 hrs by flow cytometry; format: functional, cell-based
Homo sapiens [1] = species: Homo sapiens; assay: Selectivity index, ratio of IC50 for HDAC 1 (unknown origin) to IC50 for HDAC 6 (unknown origin)
Homo sapiens [2] = species: Homo sapiens; assay: Selectivity index, ratio of IC50 for HDAC 2 (unknown origin) to IC50 for HDAC 6 (unknown origin)
Homo sapiens [3] = species: Homo sapiens; assay: Selectivity index, ratio of IC50 for HDAC 4 (unknown origin) to IC50 for HDAC 3 (unknown origin)

SMILES: O=C(/C=C/c1ccc(CNc2ccc3nc4n(c(=O)c3c2)CCCCC4)cc1)NO
- Activity (A549): Active
- Ratio IC50 (Homo sapiens [1]): 3.86
- Ratio IC50 (Homo sapiens [2]): 97.7
- Ratio IC50 (Homo sapiens [3]): 23.8
